From PMC3618987, “From BACE1 Inhibitor to Multifunctionality of Tryptoline and Tryptamine Triazole Derivatives for Alzheimer’s Disease” (Molecules, 2012) come the findings set out here.

The target of one series is T1, β-Secretase (BACE1) (Homo sapiens, UniProt P56817).
T1 construct: purchased Sino Biological
As to the kind of experiment: β-Secretase inhibition assay (fluorogenic substrate IV). Conditions: for inhibition at 25 µM: read-out: BACE1 % Inhibition (at 25 µM) (±SEM). The format is biochemical. How it is done: β-Secretase enzyme was reconstituted with 50 mM Tris (pH 7.5), 10% glycerol to yield concentration of 0.5 unit/µL. The enzyme stock solution was diluted with 100 mM sodium acetate buffer (pH 4.5) to 0.01 unit/µL. Thirty microliters of enzyme solution were added to each well that contained 20 µL of 5% DMSO of test compound. Then, fifty microliters of 50 µM β-secretase substrate IV from Calbiochem were added to the reaction plate. […] The assays were run in triplicate.

Series [1] can be described thus: Fe (II) chelation capacity assay (ferrozine). On the procedure: An aqueous solution of 0.2 mM ferrous sulphate was prepared. Fifty microliters of this solution was added to 96 well plate, then 40 µL of 500 µM of test compounds in 50% DMSO were added to each well followed by DI water to adjust the volume to 150 µL. The mixtures were incubated at room temperature for 10 min. After incubation, 50 µL of 1 mM ferrozine (Sigma) was added to the reaction mixture. The absorbance was measured at 562 nm by using infinite 200 pro^TM, Tecan. EDTA was used as a positive control. Chelation capacity of each compounds were calculated. Compounds having chelating capacity over than 50% were evaluated for stoichiometric ratio of compound: metal.

Series [2] addresses T2, amyloid-β (1-42) peptide (Homo sapiens, UniProt P05067).
T2 construct: Stock solution of amyloid-β (1-42) peptide (Anaspec; 1384 µM in 1% NH4OH); purchased Anaspec
As to the kind of experiment: Amyloid β aggregation assay (ThT fluorescence). It is filed as biochemical. The following applies: Aβ(1-42), 48 h, read-out: Anti-Aβ aggregation % Inhibition (at 100 µM) (±SEM). How it is done:
Nine microliters amyloid-β solution was added to a greiner transparent 96 well plate. One microliter of each test compounds (1,000 µM in DMSO) were added to each well and mixed gently by tapping. The final concentrations of each compound were 100 µM in 10% DMSO. The reaction plate was incubated in dark at 37 °C for 48 h. After incubation, 200 µL of 5 µM ThT (Sigma) in 50 mM Tris buffer (pH 7.4) was added to each well. The fluorescence was measured at Ex = 446 nm and Em = 490 nm by using SpectraMax Gemini EM^TM [30]. The assays were run in triplicate.

The next series concerns SH-SY5Y cells. As to the kind of experiment: Protection against Aβ1-42 induced neuronal cell death, MTT viability assay. The format is cell-based. The following applies: compound 1 μM. How it is done: The SH-SY5Y cells were cultured in a medium containing minimum essential medium (MEM): F-12 (1:1), 10% fetal bovine serum, MEM non-essential amino acids (0.5×), 0.5 mM sodium pyruvate and 100 units/ml of penicillin and 100 μg/mL of streptomycin. The cells were maintained under a humidified incubator with 5% CO2 in air at 37 °C.
SH-SY5Y cells were seeded in 96-well plates (2 × 10^4 cells per well) for 24 h. […] The aggregated β-amyloid was prepared by incubating in a medium without serum, penicillin and streptomycin at 37 °C for 72 h. The cells treated with aggregated β-amyloid were incubated for 24 h, 15 µL of MTT reagent (5 mg/mL MTT in serum free medium containing […]) was added to each well and incubated at 37 °C for 3 h. The medium was removed from each well. One hundred microlitres of 0.04 N HCl in isopropanol was added to each well to dissolve blue formazan crystals, which is the product of MTT catalyzed by mitochondrial dehydrogenase. The absorbance was measured at 570/630 nm using a Synergy^TM HT multi-detection microplate reader (Bio-Tek Instruments, Winooski, VT, USA).

In series [3] the target is T2, amyloid-β (1-42) peptide. As to the kind of experiment: Amyloid β aggregation assay (ThT fluorescence). The format is biochemical. The following applies: Aβ(1-42), read-out: Anti-Aβ aggregation IC50.
A short description of series [4]: Free radical scavenging assay (DPPH). On the procedure:
The test samples were prepared in 50% DMSO at 500 µM. Seventy microliters of DPPH solution (500 µM in methanol) was added to 96 well plate. The assay mixture was adjusted to 80 µL volume by methanol. After adjusting the volume, 20 µL of test compounds was added to each well. The reaction plate was incubated at room temperature in dark for 30 min. The absorbance was measured at 517 nm by using infinite 200 pro^TM, Tecan. Ascorbic acid was used as a positive control. Percent inhibition was calculated and compounds showing activity were evaluated for the IC50 values.
In general terms: DPPH is a stable violet radical that fades when it is reduced.

The structures appear in SMILES notation. “Also recorded” adds a separate entry of the source. Some results are limits rather than exact numbers.

T1 sequence (P56817 46-501): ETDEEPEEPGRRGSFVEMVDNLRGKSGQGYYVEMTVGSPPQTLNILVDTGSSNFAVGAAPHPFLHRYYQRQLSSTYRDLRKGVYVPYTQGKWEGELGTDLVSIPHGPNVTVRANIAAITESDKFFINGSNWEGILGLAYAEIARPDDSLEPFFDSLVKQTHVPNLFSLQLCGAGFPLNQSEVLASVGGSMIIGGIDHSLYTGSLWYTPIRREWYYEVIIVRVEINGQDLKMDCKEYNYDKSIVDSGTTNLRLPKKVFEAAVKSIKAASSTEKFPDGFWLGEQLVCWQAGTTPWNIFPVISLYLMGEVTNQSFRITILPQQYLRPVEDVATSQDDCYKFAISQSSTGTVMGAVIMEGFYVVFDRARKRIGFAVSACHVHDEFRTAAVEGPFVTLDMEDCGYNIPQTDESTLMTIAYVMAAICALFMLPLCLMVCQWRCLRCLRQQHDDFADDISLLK
T2 sequence (P05067 672-713 limits assumed): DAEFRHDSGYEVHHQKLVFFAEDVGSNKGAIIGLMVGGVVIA

One may read the inhibition as the share of the control response that was lost under treatment. As usually defined, the melting point is the temperature, or range, at which the solid turns liquid. `O=C(NCc1cn(C[C@@H]2Cc3c([nH]c4ccccc34)CN2)nn1)c1cc(O)cc(O)c1` [Compound 6f, (S)-3-((4-(((N-(3,5-Dihydroxy)benzoyl)azyl)methyl)-1H-1,2,3-triazol-1-yl)methyl)-2,3,4,9-tetrahydro-1H-pyrido[3,4-b]indole] returned a melting point of 180 to 182 °C. Further, the inhibition at 25 µM at β-Secretase (BACE1) turned out to be 21.3%. Moreover, in series [1], the “Fe chelation % Capacity (at 100 µM) (±SEM)” value is recorded as 5.80 (±0.04) %.

As a reminder, the IC50 is the midpoint of a concentration-inhibition curve. `N[C@@H](Cc1c[nH]c2ccccc12)Cn1cc(-c2ccc(Cl)c(Cl)c2)nn1` [Compound 12c, (S)-1-(4-(3,4-Dichlorophenyl)-1H-1,2,3-triazol-1-yl)-3-(1H-indol-3-yl)propan-2-amine]: the IC50 against β-Secretase (BACE1) turned out to be 20.7 µM; at amyloid-β (1-42) peptide [3], 83.2 µM. Further, the inhibition at 25 µM on β-Secretase (BACE1) stood at 61.5%. For the same compound, the inhibition at 100 µM on amyloid-β (1-42) peptide [2] is more than 50%. In addition, in the series on SH-SY5Y cells, the “Protective effect against Aβ1-42 induced neuronal cell death (MTT viability)” value was “significantly greater than those of the potent single target compound, BACE1 inhibitor IV; also recorded: decrease cell death to a greater extent than BACE1 inhibitor IV; also recorded: better than that of single targeted ligands”.

For `N[C@@H](Cc1c[nH]c2ccccc12)Cn1cc(CNC(=O)c2cc(O)cc(O)c2)nn1` [Compound 12f, (S)-N-((1-(2-Amino-3-(1H-indol-3-yl)propyl)-1H-1,2,3-triazol-4-yl)methyl)-3,5-dihydroxybenzamide], the melting point fell in the range of 68 to 70 °C. In addition, the inhibition at 25 µM on β-Secretase (BACE1) is 16.6%. Moreover, the inhibition at 100 µM on amyloid-β (1-42) peptide [2] stood at 3.8%. For the same compound, in series [1], the “Fe chelation % Capacity (at 100 µM) (±SEM)” value is 13.06 (±0.16) %. Besides, the “DPPH % Inhibition (at 100 µM) (±SEM)” value in series [4] is on record as 1.32 (±0.78) %.

With `COc1cc(/C=C/C(=O)NCc2cn(C[C@@H](N)Cc3c[nH]c4ccccc34)nn2)ccc1O` [Compound 12g, (S,E)-N-((1-(2-Amino-3-(1H-indol-3-yl)propyl)-1H-1,2,3-triazol-4-yl)methyl)-3-(4-hydroxy-3-methoxyphenyl)acrylamide], the melting point lay in the range of 118 to 119 °C. The inhibition at 25 µM on β-Secretase (BACE1) is 16.2%. Besides, the inhibition at 100 µM at amyloid-β (1-42) peptide [2] was found to be 46.1%. In series [4], the IC50 was determined as 130 µM and the “DPPH % Inhibition (at 100 µM) (±SEM)” value was 40.79 (±0.31) %. Besides, on amyloid-β (1-42) peptide [3], the IC50 is 110 µM.
